Patent publication US6911194B2, “Skin preparation” (PhotoCure ASA, priority 2000, dated 2005)

Key:
[1] = system: skin of C3H/Tif hairless mice; assay: Pigmentation of hairless mouse skin after topical drug and red laser light (Example 4, Experiment A); assay type: in vivo
Experimental: One hour after the application, the mice were exposed to light for 1 min (red laser light, 100 m/Wcm^2, 633 nm). […] The treatment was repeated 10 times within 2 weeks.

human skin [2] = assay: Erythema and pigmentation on human forearm after topical cream and black light (Example 4, Experiment B); assay type: in vivo; conditions: for erythema: high doses: drug 20%, light 3 min, cream applied 4 hours
Experimental: ALA and ALA derivatives in cream was applied to different areas on the forearm of a person. Four hours afterwards the cream was removed and the arm was exposed to black light, 380 nm, for 1-5 min. The skin of the arm was examined for two weeks.

SKH1 hairless mouse = assay: Prevention of UV-induced skin cancer by multiple topical ALA-Me PDT sessions (Example 8); assay type: in vivo
Experimental: The ability of multiple photodynamic therapy (PDT) sessions with topical ALA methylester (ALA-Me) to prevent skin cancer induced by ultraviolet radiation (UV) was studied in the SKH1 hairless mouse. Groups of 20 mice were exposed 5 days per week to UV from FS20 tubes. One group was treated weekly with 8% topical ALA-Me followed 2 hours later by 1.2 J/cm^2 of light from a slide projector, The number, location, and size of skin tumors were registered weekly. Other study groups included: mice treated with 8% ALA-Me and not exposed to light, mice exposed to UV and vehicle, mice exposed to topical ALA-Me and light but not UV, as well as mice exposed to UV with half of their bodies treated with 8% ALA-Me and half of their bodies treated with the vehicle. […] After 26 weeks of UV exposure large tumors (≧4 mm) were present in 14 mice of the UV group as compared to only one mouse in the UV-ALA-Me group.

human skin [3] = assay: Erythema on human hands after topical cream and blacklight exposure (Example 2); assay type: in vivo; conditions: 20% in Unguentum Merck cream, 5 hours on hands, blacklight 350-400 nm for 5 min or 1 min
Experimental: A high concentration of ALA and ALA-methyl ester (20%, Sigma) in a cream (Unguentum Merck) was applied to a circular area of 1 cm diameter for 5 hours on both hands of a person, FIGS. 1(A, B). A means ALA, M means ALA-methyl ester. The areas of application are shown by the dotted circles on the figure. The cream with the drugs were carefully washed away and the areas were exposed to ordinary blacklight from a fluorescence tube. The wavelengths of the light fall within the region 350-400 nm, FIG. 2. An exposure of 5 minutes was given to the left hand and an exposure of 1 minute was given to the right hand.

Balb/c athymic nude mice = assay: Tissue distribution of PpIX fluorescence after topical application in mice (Example 5); assay type: in vivo, mouse; conditions: 20% cream topical, compared to ALA methyl ester
Experimental: ALA, ALA methyl ester and ALA hexyl ester containing cream was applied locally on the skin surface of hairless mice. Fluorescence intensities were used as indications of the concentration of PpIX on the application site (skin), in remote skin spots, in liver, intestine, lungs, muscle and brain and plasma.
A cream was prepared using 20% (wt/wt) ALA, ALA-Me or ALA-Hex in an ointment (Unguentum, Merck, Darmstadt, Germany). Approximately 0.2 mg of the freshly prepared cream was applied on a single spot of 1 cm diameter on normal skin of each mouse. An adhesive dressing (OpSite Flexigrid, Smith and Nephew Medical, LTD, Hull, England) with a punched hole of 1 cm in diameter was first put on the skin. Then the cream was applied on the skin in the punched hole and covered with another similar dressing. […]
Female Balb/c athymic nude mice were obtained from Bomholt Gaard (Ry, Denmark). At the start of each experiment, they were 7-8 weeks old and weighed 18-25 g. Three mice were housed per cage with autoclaved filter covers in a room with subdued light at constant temperature (24-26° C.) and humidity (30-50%). […]
The method for determining the amounts of PpIX in tissues was described previously (Ma et al., 1998). […] Levels of PpIX in the supernatants were quantitatively determined by recording fluorescence emission spectra of the samples using a Perkin-Elmer (Norwalk, Conn.) LS 50B spectrofluorimeter. […]

skin of nude BALB/c mice = assay: Localization of PpIX fluorescence on skin of nude mice under UV lamp (Example 6)
[4] = PpIX concentration in plasma after topical application in mice (Example 5); assay type: in vivo, mouse; conditions: 20 hr after topical application of 20% cream
Experimental: A cream was prepared using 20% (wt/wt) ALA, ALA-Me or ALA-Hex in an ointment (Unguentum, Merck, Darmstadt, Germany). Approximately 0.2 mg of the freshly prepared cream was applied on a single spot of 1 cm diameter on normal skin of each mouse. An adhesive dressing (OpSite Flexigrid, Smith and Nephew Medical, LTD, Hull, England) with a punched hole of 1 cm in diameter was first put on the skin. Then the cream was applied on the skin in the punched hole and covered with another similar dressing. 20 hours application time was used.
Female Balb/c athymic nude mice were obtained from Bomholt Gaard (Ry, Denmark). At the start of each experiment, they were 7-8 weeks old and weighed 18-25 g. Three mice were housed per cage with autoclaved filter covers in a room with subdued light at constant temperature (24-26° C.) and humidity (30-50%). Food and bedding were sterilized and the mice were given tap water ad libitum in sterilized bottles. For proper application of the cream, anaesthesia, hypnorm dormicum (approximately 4 ml/kg body weight), was i.p. injected into the mice.
Immediately after mice were killed, whole blood was drawn directly from the right atrium of the heart. The total volume of blood obtained from each mouse was approximately 0.2 ml and was selected in EDTA-treated micro-tubes. The red blood cells were fluorimetrically determined as described above.

naked mice = conditions: topical ALA, simulated solar UV radiation; cited from earlier work
forearm skin of a person = assay: Erythema and PpIX fluorescence on forearm skin after topical cream and UVA light (Example 7); assay type: in vivo, human; conditions: for content of PpIX produced in the skin areas (fluorescence emission spectra): 20% cream on forearm; for erythema: 20% cream, UVA black light 5 min two hours after application, observed 24 hours later
Experimental: A cream (Unguentum, Merck) containing 20% ALA, ALA butyl ester and ALA hexyl ester respectively, was applied on three separate areas on the skin of the forearm of a person. Two hours later the skin areas were exposed to UVA light from a black light lamp for 5 min.
The content of PpIX produced in the skin areas was assessed by measuring the fluorescence emission spectra.

COC(=O)CCC(=O)CN [ALA methyl ester, 5-aminolevulinic acid methyl ester]
skin pigmentation ([1]; 1% cream, 1 min red laser light, repeated 10 times within 2 weeks): gradually pigmented | erythema ([1]; 1% in Unguentum Merck cream, light 1 min (633 nm) one hour after application): No erythema was observed | erythema (human skin [2]): led to erythema | delay in tumor appearance, half body ALA-Me and half body vehicle (SKH1 hairless mouse; UV-exposed mice treated on one side with 8% ALA-Me, other side vehicle): observed only on the side treated with ALA-Me | number of mice with large tumors (≧4 mm) (SKH1 hairless mouse; after 26 weeks of UV exposure, groups of 20 mice): one | protoporphyrin IX accumulation in tumors versus adjacent UV exposed skin and normal skin (SKH1 hairless mouse; in vivo fluorescence spectroscopy and fluorescence microscopy at the time of light exposure): preferential accumulation of protoporhyrin IX in tumors | mortality or morbidity (SKH1 hairless mouse; topical ALA-Me-PDT): without increasing mortality or morbidity | time when the first tumor appeared (SKH1 hairless mouse; weekly 8% topical ALA-Me plus 1.2 J/cm^2 light, compared to mice only exposed to UV): significant delay | erythema spreading out from the area of application (human skin [3]): only in a half-circle in the upper part of the hand

NCC(=O)CCC(=O)O [ALA, 5-aminolevulinic acid]
pigmentation (human skin [2]; 20% ALA, 1 min light (slightly erythemogenic), 2 weeks after light exposure): led to later pigmentation | erythema (human skin [2]): led to erythema | pigmentation (melanogenesis) (human skin [2]; one week after a low dose single nonerythemogenic treatment): clearly visible pigmentation (melanogenesis) | PpIX outside the application site (Balb/c athymic nude mice; 5 hrs application time): significally more PpIX outside the application site | PpIX outside the application site (Balb/c athymic nude mice; 20 hrs application time): significally more PpIX outside the application site | localization of protoporphyrin IX (PpIX) fluorescence (skin of nude BALB/c mice; 20% cream, photos under UV lamp after 8 hours): localized all over the skin | site of PpIX production after application on the skin of mice (summary statement) (skin of nude BALB/c mice; applied on the skin of mice): induces PpIX in the whole mouse | concentration in plasma [4]: higher than both ALA methylester and ALA hexylester | UV induction of skin cancer (naked mice): photo-induced carcinogenesis was delayed | skin reaction of exposed areas (naked mice): erythematous | content of PpIX produced in the skin areas (fluorescence emission spectra) (forearm skin of a person): highest concentration of PpIX | erythema (forearm skin of a person): significant pronounced erythema | erythema spreading out from the area of application (human skin [3]): circular, covering both the upper and the lower part of the hand

CCCCCCOC(=O)CCC(=O)CN [ALA hexyl ester, 5-aminolevulinic acid hexyl ester]
content of PpIX produced in the skin areas (fluorescence emission spectra) (forearm skin of a person): smallest | erythema (forearm skin of a person): significant but weaker erythema

CCCCOC(=O)CCC(=O)CN [ALA butyl ester]
content of PpIX produced in the skin areas (fluorescence emission spectra) (forearm skin of a person): smaller | erythema (forearm skin of a person): significant but weaker erythema
